How the values were obtained:
Assay in all cases: relative viability (nuclei count vs DMSO), 5 days (fraction); higher = more cells survive
[1] = compound: Cc1nc(NC(=O)N2CCC[C@H]2C(N)=O)sc1-c1ccnc(C(C)(C)C(F)(F)F)c1 [Alpelisib] + COc1cc2c(Oc3ccc(NC(=O)C4(C(=O)Nc5ccc(F)cc5)CC4)cc3F)ccnc2cc1OCCCN1CCOCC1 [Foretinib] (partner 0.25 µM)
Procedure, shortened: (§1)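 Lung cancer cell lines were seeded in 1536-well plates and dosed by pin tool the next day, with either a single drug or a fixed anchor-drug dose combined with five library-drug doses (not always all listed) spaced in √10 steps. Five days later, one step fixed the cells and stained their nuclei (final 0.05% Triton X-100, 1% formaldehyde, 1 ug/ml Hoechst), and nuclei were counted on 4× images. Relative viability is the nuclei count in treated wells divided by the count in vehicle wells, and each value is the median of duplicate plates.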

[2] = compound: CCCS(=O)(=O)Nc1ccc(F)c(C(=O)c2c[nH]c3ncc(-c4ccc(Cl)cc4)cc23)c1F [Vemurafenib] + O=C(c1cc(Cc2n[nH]c(=O)c3ccccc23)ccc1F)N1CCN(C(=O)C2CC2)CC1 [Olaparib] (partner 8 µM)
Procedure, shortened: as §1

[3] = compound: COc1cccc2cc(-c3nc([C@H]4CC[C@H](C(=O)O)CC4)n4ncnc(N)c34)[nH]c12 [OSI-027] + Nc1nc2[nH]cc(CCc3ccc(C(=O)N[C@@H](CCC(=O)O)C(=O)O)cc3)c2c(=O)[nH]1 [Pemetrexed] (partner 0.2 µM)
Procedure, shortened: as §1

[4] = compound: Cc1nc(NC(=O)N2CCC[C@H]2C(N)=O)sc1-c1ccnc(C(C)(C)C(F)(F)F)c1 [Alpelisib] + CC1(C)CCC(c2ccc(Cl)cc2)=C(CN2CCN(c3ccc(C(=O)NS(=O)(=O)c4ccc(N[C@H](CCN5CCOCC5)CSc5ccccc5)c(S(=O)(=O)C(F)(F)F)c4)cc3)CC2)C1 [Navitoclax] (partner 0.5 µM)
Procedure, shortened: as §1

Cell Line	relative viability ([1]; first compound 0.04 µM)	relative viability ([1]; first compound 0.1265 µM)	relative viability ([1]; first compound 0.4 µM)	relative viability ([1]; first compound 1.265 µM)	relative viability ([1]; first compound 4 µM)	relative viability ([2]; first compound 0.03162 µM)	relative viability ([2]; first compound 0.1 µM)	relative viability ([2]; first compound 0.3162 µM)	relative viability ([2]; first compound 1 µM)	relative viability ([3]; first compound 0.01 µM)	relative viability ([3]; first compound 0.03162 µM)	relative viability ([3]; first compound 0.1 µM)	relative viability ([3]; first compound 0.3162 µM)	relative viability ([3]; first compound 1 µM)	relative viability ([4]; first compound 0.04 µM)	relative viability ([4]; first compound 0.1265 µM)	relative viability ([4]; first compound 0.4 µM)	relative viability ([4]; first compound 1.265 µM)	relative viability ([4]; first compound 4 µM)
HARA	0.914	0.888	0.879	0.682	0.533	0.761	0.289	0.899	0.942	0.249	0.221	0.231	0.227	0.264	1.13	1.17	1.16	1.2	0.575
HCC-15	0.982	1	0.961	0.792	0.735	0.699	0.669	0.606	0.522	0.221	0.239	0.211	0.227	0.231	0.627	0.7	0.74	0.598	0.454
HCC-44	–	–	–	–	–	0.985	0.992	0.992	0.99	0.668	0.649	0.708	0.658	0.669	0.949	0.983	1.04	0.802	0.735
HCC-78	0.495	0.426	0.493	0.353	0.366	0.73	0.784	1.13	0.881	0.954	0.918	0.911	0.913	0.887	0.745	0.609	0.738	0.373	0.518
HCC-366	0.887	0.939	0.868	0.861	0.349	0.343	0.304	–	0.388	0.18	0.162	0.175	0.186	0.206	1.02	1.08	1.05	0.681	0.334
IA-LM	1.03	1.31	1.11	1.12	1.13	0.67	0.818	0.78	0.721	–	–	–	–	–	0.894	0.727	0.736	0.628	0.718
LCLC-103H	0.67	0.758	0.652	0.567	0.471	0.644	0.71	0.742	0.797	0.481	0.47	0.481	0.446	0.52	–	–	–	–	–
NCI-H358	0.622	0.674	0.684	0.567	0.353	0.539	0.745	0.625	0.521	0.185	0.171	0.176	0.132	0.151	–	–	–	–	–
NCI-H522	–	–	–	–	–	0.667	0.543	0.669	0.725	1.04	0.956	0.717	0.858	0.664	–	–	–	–	–
